This note sets out measurements from patent publication US10653664B2, “Antibacterial compositions of mono-alkyl ethers of monoanhydro-hexitols and antibacterial methods using of the same” (TEREOS STARCH & SWEETENERS, priority 2014, dated 2020).

Structures are written as SMILES. In brackets after ≈: the same amount, converted by molar mass.

Experiment in all cases: MIC, 96-well microplate microdilution (Example 14)
Holding throughout (assay type): cell-based
In general terms: In broth dilution the organism is exposed to a series of concentrations in liquid medium.

In one test the test system is E. faecalis (ATCC 29212). The note with it: Enterococcus faecalis, ATCC29212, Table 5, read-out: Minimum inhibitory concentration (MIC). On the procedure:
(§1) The bacteriostatic properties of the derivatives are evaluated by measuring their minimum inhibitory concentration (MIC) on the bacteria tested. These measurements are made using the 96-well microplate microdilution method according to the conditions defined below. The minimum inhibitory concentrations (MIC) are tested on Gram-positive bacterial strains according to the recommendations of the “Clinical Laboratory Standards Institute” (Clinical-Laboratory-Standards-Institute, 6th ed. Approved standard M100-S17. CLSI, Wayne, Pa., 2007). The Gram-positive bacteria studied are as follows: L. monocytogenes (CIP 103575), E. faecalis (ATCC® 29212™) and S. aureus (ATCC® 292213 ™). The cultures studied, freshly isolated (after incubation on a blood agar at 37° C. for 18 h), are taken up in sterile water (10 mL) until obtaining a 0.5 McFarland (Mc) suspension i.e. 1 to 2×10^8 CFU (bacteria)/cm^3. The bacterial suspension was then diluted to obtain a final concentration of 5×10^5 CFU/cm3. Each well contains an identical quantity of Mueller-Hinton medium (a rich medium for bacterial culture) and bacteria with final 5×10^5 CFU/cm3. The test compounds of interest are solubilized in 2.5% of ethanol before being diluted to different concentrations two by two. On the multiwell plate, a first series has been planned comprising the culture medium without the test compound of interest. It corresponds to the growth control (control well). These controls serve as reference for comparing bacterial growth with that of the subsequent wells comprising different concentrations of the test compound of interest. The second series of wells comprises the mother solution for the test compound of interest for a concentration in the wells of 4 mM. Each series of wells was diluted two by two until the last series for a final concentration of 0.003 mM. Each concentration is duplicated in the same plate. The plate is incubated for 18 h at 37° C. […] If there is antibacterial activity, the bacterial growth is inhibited, which means that no turbidity or bacterial residue is present.

The test system of a further test is S. aureus (ATCC 292213). Particulars: for MIC: Staphylococcus aureus, ATCC292213, Table 5, read-out: Minimum inhibitory concentration (MIC). How it is done:
as §1

The test system of test [1] is L. monocytogenes (CIP 103575). The note with it: for MIC: Listeria monocytogenes, CIP103575, Table 5, read-out: Minimum inhibitory concentration (MIC). How it is done:
as §1

Setting [2] is: Table 7 comparison with reference products.

Consider `CCCCCOCC(O)[C@H]1OCC(O)C1O` (some centres unmarked) [Entry 1, (1,4)-sorbitan pentyl ethers], for which the MIC (in the test with E. faecalis (ATCC 29212); in the test on S. aureus (ATCC 292213); in test [1]) was > 4 mM in each case.
Take `CCCCCCOCC(O)[C@H]1OCC(O)C1O` (some centres unmarked) [Entry 2]: the MIC (in the test with E. faecalis (ATCC 29212); in the test on S. aureus (ATCC 292213); in test [1]) was > 4 mM throughout.
`CCCCCCCCOCC(O)[C@H]1OCC(O)C1O` (some centres unmarked) [Entry 3, Octyl-1,4-sorbitan]: the MIC (in the test with E. faecalis (ATCC 29212); with S. aureus (ATCC 292213); in test [1]) was > 4 mM in each case.
`CCCCCCCCCCOCC(O)[C@H]1OCC(O)C1O` (some centres unmarked) [Entry 4, Decyl-1,4-sorbitan]: the MIC (with E. faecalis (ATCC 29212); in the test with S. aureus (ATCC 292213); in test [1]) was > 4 mM in each case.
As for `CCCCCCCCCCCC(=O)OCC(O)CO` (centres unmarked) [ML, monolaurine, reference compound], the “Minimum inhibitory concentration (MIC)” value (with S. aureus (ATCC 292213) (setting [2]); in test [1] (setting [2])) was 0.04 mM (≈ 11 µg/mL) throughout.
